Measured values: patent US9895381B2, “Vitamin D receptor agonists to treat diseases involving CXCL12 activity” (Salk Institute for Biological Studies, priority 2013, dated 2018)
Converted amounts (≈) assume the structure as drawn.

What was measured:
[1] = tested on: wild type mice; assay: Cerulein-induced acute pancreatitis model; assay type: in vivo, mouse; details: cerulein with daily 40 μg/kg calcipotriol
Method: Tissues were embedded in O.C.T. and frozen sections were fixed in ice-cold methanol at −20° C. for 20 min. Sections were blocked in PBS+0.2% BSA+0.05% Triton X-100 (blocking solution) for 1 h at room temperature. Primary antibody dilutions in blocking solution were as follows: anti-phospho-STAT3(Tyr705), 1:100 (Cell Signaling Technology); anti-Collagen I, 1:500 (Abcam), anti-GFAP, 1:100 (Abcam); anti-CD45, 1:100 (BD Pharmingen). Primary antibody incubations were performed in a humidified chamber at 4° C. overnight. Sections were washed 3 times with PBS+0.05% Triton X-100, then incubated in secondary antibodies for 1 h at room temperature, protected from light. Secondary antibodies used included Alexa Fluor 594 goat anti-rabbit IgG, Alexa Fluor 488 goat anti-rabbit IgG, Alexa Fluor 594 goat anti-rat IgG, and Alexa Fluor 488 goat anti-mouse IgG (Molecular Probes) and were used at 1:250 in blocking solution. […] Fluorescence was visualized on a Leica DM5000B fluorescent microscope and quantified using ImageJ. […] Cerulein injections were administered as 6 hourly injections 2 times per week for 12 weeks and analyzed 1 week after final cerulein injection, adapted from previous studies (Sah et al., 2013; Treiber et al., 2011; Yoo et al., 2005). […] Images were obtained and quantification of Sirius Red-positive area performed using Nuance 3.0.1.2 software. […]

[2] = cited from earlier work
[3] = tested on: wild-type C57BL6/J mice; assay: Cerulein-induced chronic pancreatitis model; assay type: in vivo, mouse; details: for inflammation and fibrosis: cerulein plus 40 μg/kg calcipotriol i.p. vs cerulein alone
Method: Tissues were embedded in O.C.T. and frozen sections were fixed in ice-cold methanol at −20° C. for 20 min. Sections were blocked in PBS+0.2% BSA+0.05% Triton X-100 (blocking solution) for 1 h at room temperature. Primary antibody dilutions in blocking solution were as follows: anti-phospho-STAT3(Tyr705), 1:100 (Cell Signaling Technology); anti-Collagen I, 1:500 (Abcam), anti-GFAP, 1:100 (Abcam); anti-CD45, 1:100 (BD Pharmingen). Primary antibody incubations were performed in a humidified chamber at 4° C. overnight. Sections were washed 3 times with PBS+0.05% Triton X-100, then incubated in secondary antibodies for 1 h at room temperature, protected from light. Secondary antibodies used included Alexa Fluor 594 goat anti-rabbit IgG, Alexa Fluor 488 goat anti-rabbit IgG, Alexa Fluor 594 goat anti-rat IgG, and Alexa Fluor 488 goat anti-mouse IgG (Molecular Probes) and were used at 1:250 in blocking solution. Sections were washed 3 times with PBS and mounted using Vectastain mounting medium with or without DAPI. Fluorescence was visualized on a Leica DM5000B fluorescent microscope and quantified using ImageJ. Chronic pancreatitis was induced in wild-type C57BL6/J mice beginning at 8 weeks of age. Ten animals per cohort received intraperitoneal injections of saline, 50 μg/kg cerulein, or cerulein plus 40 μg/kg calcipotriol. Cerulein injections were administered as 6 hourly injections 2 times per week for 12 weeks and analyzed 1 week after final cerulein injection, adapted from previous studies (Sah et al., 2013; Treiber et al., 2011; Yoo et al., 2005). Calcipotriol injections were administered 3 times per week for the duration of the chronic pancreatitis study. For acute pancreatitis studies, 8-week-old wild-type or Vdr−/− mice received 6 hourly intraperitoneal injections of 50 μg/kg cerulein on days 1, 3, and 5, with or without single daily injections of 40 μg/kg calcipotriol. Mice were sacrificed on day 6. At necropsy, pancreata were harvested and digested for PSC isolation as described above, or prepared for histological analysis as described herein. Histological sections were cut from formalin-fixed tissues at 7 μm thickness Sirius Red/Fast Green staining (Chondrex) was performed per manufacturer's instructions. Images were obtained and quantification of Sirius Red-positive area performed using Nuance 3.0.1.2 software. Six independent fields were captured per sample.

[4] = tested on: KPC mice with pancreatic ductal adenocarcinoma; assay: KPC mouse PDA study; assay type: in vivo; details: Cal alone
Method: KPC mice with pancreatic ductal adenocarcinoma were used based on tumor size, as described previously (Olive et al., 2009). In this study, enrollment was restricted to mice with tumors of a mean diameter between 6 and 9 mm, as determined by high resolution ultrasound imaging. Suitable mice were assigned to a treatment group: gemcitabine; calcipotriol; or gemcitabine and calcipotriol combination. Gemcitabine was administered as a saline solution at 100 mg/kg by intraperitoneal injection, once every three days; when appropriate, a final dose was given two hours prior to euthanasia. Calcipotriol was administered as a saline solution daily at 60 μg/kg by intraperitoneal injection. […]
LC-MS/MS was performed as described by Bapiro et al. (Bapiro et al., 2011). […] Analytes were separated using a gradient of acetonitrile in 10 mM ammonium acetate, pH 10 and detected using a Thermo LTQ-XL mass spectrometer (Thermo Fisher Scientific). Drugs recoveries were normalized using the internal standards and quantified using calibration standards generated from untreated tissue homogenates as described (Bapiro et al., 2011).
Tumors harvested from treated KPC mice were immediately fixed in buffered formalin. […] CD31-positive area was quantified in each section using Nuance software. […] Total tumor cells were quantified per field, as well as total and percent CC3-positive tumor cells per field. […]

[5] = tested on: primary human CAPSCs; assay: ACTA2 expression by qRT-PCR; assay type: cell-based; details: 100 nM Cal, 48 h; samples responding / samples tested
Method: Total RNA was purified following Trizol extraction according to the manufacturer's instructions. cDNA synthesis was carried out using iScript reagent (Bio-Rad), and qRT-PCR performed using SsoAdvanced SYBR Green reagent on the CFX384 detection system (Bio-Rad). Relative expression values were determined using the standard curve method. Primer sequences can be found in Table 2.

In the case of C=C1/C(=C\C=C2/CCC[C@]3(C)[C@@H]([C@H](C)/C=C/[C@@H](O)C4CC4)CC[C@@H]23)C[C@@H](O)C[C@@H]1O [Cal, 1α,24-(OH)2-24-cyclopropyl-D3], the “activation-associated changes in PSC gene expression” value [1] is given as “impaired activation-associated changes in PSC gene expression”, the “leukocyte infiltration and fibrosis” value [1] is given as “reduced leukocyte infiltration and fibrosis” and the “solubility in DMSO” value ([2]; DMSO) is given as 100 mM (≈ 41.3 mg/mL). The solubility in ethanol ([2]; ethanol) was 100 mM (≈ 41.3 mg/mL), the inflammation and fibrosis [3] was “attenuated inflammation and fibrosis” and the inflammation and fibrosis ([3]; listed as calcipotriol) was “markedly reduced inflammation and fibrosis”. For the same compound, the “Acta2 expression in isolated PSCs” value ([3]; cerulein+Cal 12 weeks) was “trended downwards”, the phospho-Stat3 induction ([3]; cerulein+Cal 12 weeks) was “reduced induction of phospho-Stat3” and the “expression of activation and cancer signature genes in isolated PSCs” value ([3]; cerulein+Cal 12 weeks vs controls) was “decreased”. The “efficacy as a single agent” value [4] was “no measurable beneficial effects” and the “decreased expression of αSMA (ACTA2), patient samples” value [5] was 24/27.
